# Data as given in patent US10479795B2 (Incyte Corporation, priority 2016, dated 2019).
# Where a name gives a salt, the structure may show the parent alone.
# Tests used:
# [1] = biological target: PI3Kγ (p110γ) Recombinant Human Protein (Homo sapiens (Human), UniProt P48736); assay: PI3K-γ Scintillation Proximity Assay; type: biochemical; details: read-out: PI3Kγ IC50
# In short: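 Recombinant human p110γ assayed at room temperature in 20 mM MOPS pH 6.7, 10 mM MgCl2, 5 mM DTT, 0.03% CHAPS, 2% DMSO, with 20 μM PIP2 and 2 μM ATP plus [γ-33P]ATP. Product captured on WGA SPA beads overnight and counted; IC50 fitted from % of solvent-control activity versus log inhibitor concentration.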
# [2] = biological target: PI3Kδ (p110δ/p85α) Recombinant Human Protein (Homo sapiens (Human), UniProt O00329); assay: PI3Kδ Scintillation Proximity Assay; type: biochemical
# Excerpt: Example C. PI3Kδ Scintillation Proximity Assay
# [γ-^33P]ATP (10 mCi/mL) and Wheat Germ Agglutinin (WGA) YSi SPA Scintillation Beads was purchased from Perkin-Elmer (Waltham, Mass.). Lipid kinase substrate, D-myo-Phosphatidylinositol 4,5-bisphosphate (PtdIns(4,5)P2)D (+)-sn-1,2-di-O-octanoylglyceryl, 3-O-phospho linked (PIP2), CAS 204858-53-7, was purchased from Echelon Biosciences (Salt Lake City, Utah). PI3Kδ (p110δ/p85α) Recombinant Human Protein was purchased from Eurofins (St Charles, Mo.). ATP, MgCl2, DTT, EDTA, MOPS and CHAPS were purchased from Sigma-Aldrich (St. Louis, Mo.).
# The kinase reaction was conducted in polystyrene 384-well Greiner Bio-one white plate from Thermo Fisher Scientific in a final volume of 25 μL. Inhibitors were first diluted serially in DMSO and added to the plate wells before the addition of other reaction components. The final concentration of DMSO in the assay was 2%. The PI3Kδ assay was carried out at room temperature in 20 mM MOPS, pH 6.7, 10 mM MgCl2, 5 mM DTT and CHAPS 0.03%. Reactions were initiated by the addition of ATP, the final reaction mixture consisted of 20 μM PIP2, 2 μM ATP, 0.5 μCi [γ-^33P] ATP, 3.4 nM PI3Kδ. Reactions were incubated for 120 min and terminated by the addition of 40 μL SPA beads suspended in quench buffer: 163 mM potassium phosphate pH 7.8, 20% glycerol, 25 mM EDTA. The final concentration of SPA beads is 1.0 mg/mL. After the plate sealing, plates were shaken overnight at room temperature and centrifuged at 1500 rpm for 10 min, the radioactivity of the product was determined by scintillation counting on Topcount (Perkin-Elmer). IC50 determination was performed by fitting the curve of percent of the solvent control activity versus the log of the inhibitor concentration using the GraphPad Prism 6.0 software.
# Sequence of PI3Kδ (p110δ/p85α) Recombinant Human Protein (O00329 whole entry): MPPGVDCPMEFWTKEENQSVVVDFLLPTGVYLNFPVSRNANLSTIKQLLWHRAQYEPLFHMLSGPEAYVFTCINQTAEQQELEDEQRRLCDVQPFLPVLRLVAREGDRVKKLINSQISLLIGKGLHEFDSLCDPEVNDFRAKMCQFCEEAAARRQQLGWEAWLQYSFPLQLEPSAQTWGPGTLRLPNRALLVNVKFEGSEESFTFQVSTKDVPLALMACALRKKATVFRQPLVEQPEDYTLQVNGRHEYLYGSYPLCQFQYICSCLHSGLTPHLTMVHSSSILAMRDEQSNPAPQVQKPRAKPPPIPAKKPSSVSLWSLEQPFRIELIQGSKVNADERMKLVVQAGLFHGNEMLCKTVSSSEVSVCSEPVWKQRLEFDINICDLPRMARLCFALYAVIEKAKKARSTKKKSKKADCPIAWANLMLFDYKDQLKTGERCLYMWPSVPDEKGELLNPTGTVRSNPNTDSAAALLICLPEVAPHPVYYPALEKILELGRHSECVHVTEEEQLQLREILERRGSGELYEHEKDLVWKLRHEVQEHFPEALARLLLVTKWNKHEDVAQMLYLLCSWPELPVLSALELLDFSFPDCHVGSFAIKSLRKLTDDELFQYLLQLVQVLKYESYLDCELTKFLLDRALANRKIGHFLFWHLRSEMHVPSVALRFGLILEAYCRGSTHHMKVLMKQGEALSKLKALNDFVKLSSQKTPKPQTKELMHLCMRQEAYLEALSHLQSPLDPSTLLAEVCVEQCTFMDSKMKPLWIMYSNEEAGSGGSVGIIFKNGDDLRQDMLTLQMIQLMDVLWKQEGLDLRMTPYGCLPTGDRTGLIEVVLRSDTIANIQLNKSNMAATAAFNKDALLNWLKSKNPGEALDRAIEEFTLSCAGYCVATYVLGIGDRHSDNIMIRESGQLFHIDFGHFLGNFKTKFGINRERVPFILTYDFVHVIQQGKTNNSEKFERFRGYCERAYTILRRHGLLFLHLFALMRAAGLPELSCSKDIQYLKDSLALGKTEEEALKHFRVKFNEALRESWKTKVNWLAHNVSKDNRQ
# Sequence of PI3Kδ (p110δ/p85α) Recombinant Human Protein (P27986 whole entry partner): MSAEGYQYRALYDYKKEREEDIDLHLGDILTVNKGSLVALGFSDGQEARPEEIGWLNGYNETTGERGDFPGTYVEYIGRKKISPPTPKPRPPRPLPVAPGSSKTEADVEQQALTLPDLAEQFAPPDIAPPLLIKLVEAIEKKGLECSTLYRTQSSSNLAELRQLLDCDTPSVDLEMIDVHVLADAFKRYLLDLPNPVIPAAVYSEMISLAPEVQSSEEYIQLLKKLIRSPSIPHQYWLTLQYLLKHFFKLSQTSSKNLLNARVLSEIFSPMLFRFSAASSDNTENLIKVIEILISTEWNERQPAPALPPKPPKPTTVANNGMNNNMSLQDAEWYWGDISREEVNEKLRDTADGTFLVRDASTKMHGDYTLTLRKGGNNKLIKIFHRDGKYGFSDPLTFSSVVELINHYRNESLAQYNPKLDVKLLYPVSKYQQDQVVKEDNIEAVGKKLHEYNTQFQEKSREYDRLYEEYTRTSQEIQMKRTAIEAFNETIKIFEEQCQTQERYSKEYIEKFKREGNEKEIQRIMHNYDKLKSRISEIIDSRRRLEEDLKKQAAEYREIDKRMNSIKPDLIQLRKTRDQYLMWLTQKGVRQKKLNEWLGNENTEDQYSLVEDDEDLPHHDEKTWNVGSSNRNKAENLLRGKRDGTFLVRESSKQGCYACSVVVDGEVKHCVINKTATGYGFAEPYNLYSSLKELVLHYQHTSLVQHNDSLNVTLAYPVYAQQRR
# Sequence of PI3Kγ (p110γ) Recombinant Human Protein (P48736 whole entry): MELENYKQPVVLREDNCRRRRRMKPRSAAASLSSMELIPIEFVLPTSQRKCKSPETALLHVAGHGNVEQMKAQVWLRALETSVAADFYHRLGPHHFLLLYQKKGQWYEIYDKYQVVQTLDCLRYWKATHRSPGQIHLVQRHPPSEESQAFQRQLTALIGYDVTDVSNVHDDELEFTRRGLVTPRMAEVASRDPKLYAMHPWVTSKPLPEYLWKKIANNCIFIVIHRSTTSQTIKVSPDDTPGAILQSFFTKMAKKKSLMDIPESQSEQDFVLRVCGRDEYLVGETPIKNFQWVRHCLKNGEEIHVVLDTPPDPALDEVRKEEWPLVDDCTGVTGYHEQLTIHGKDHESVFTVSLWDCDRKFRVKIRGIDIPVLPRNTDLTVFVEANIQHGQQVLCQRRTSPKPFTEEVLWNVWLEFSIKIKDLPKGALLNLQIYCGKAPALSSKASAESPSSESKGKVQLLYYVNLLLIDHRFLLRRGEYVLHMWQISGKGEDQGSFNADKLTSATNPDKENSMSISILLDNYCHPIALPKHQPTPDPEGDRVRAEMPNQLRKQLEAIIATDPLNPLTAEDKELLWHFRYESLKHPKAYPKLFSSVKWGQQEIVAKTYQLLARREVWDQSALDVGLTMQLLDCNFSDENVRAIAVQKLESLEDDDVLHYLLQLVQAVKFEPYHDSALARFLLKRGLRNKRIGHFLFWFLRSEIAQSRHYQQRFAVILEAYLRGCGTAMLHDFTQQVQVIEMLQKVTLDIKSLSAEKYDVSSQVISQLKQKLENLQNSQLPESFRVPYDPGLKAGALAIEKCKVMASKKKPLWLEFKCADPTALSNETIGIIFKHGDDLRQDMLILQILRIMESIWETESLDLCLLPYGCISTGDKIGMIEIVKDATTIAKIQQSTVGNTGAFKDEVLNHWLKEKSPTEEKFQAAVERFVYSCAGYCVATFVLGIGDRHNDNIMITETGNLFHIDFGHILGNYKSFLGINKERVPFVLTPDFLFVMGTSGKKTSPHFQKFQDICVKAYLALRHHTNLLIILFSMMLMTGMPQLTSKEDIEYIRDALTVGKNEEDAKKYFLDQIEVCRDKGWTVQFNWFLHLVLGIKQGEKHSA
SMILES,IC50 [1] [nM],IC50 [2] [nM]
"Cc1ccc(S(=O)(=O)N2CCN3CCCC3C2)cc1-c1cnc2c(N)ncnn12 (stereo not drawn) [Example 198, 7-(5-((Hexahydropyrrolo[1,2-a]pyrazin-2(1H)-yl)sulfonyl)-2-methylphenyl)imidazo[2,1-f][1,2,4]triazin-4-amine]",100 to 500,500 to 2000
"Cc1ccc(S(=O)(=O)N2CCC(C)(C#N)C2)cc1-c1cnc2c(N)ncnn12 (stereo not drawn) [Example 200, 1-((3-(4-Aminoimidazo[2,1-f][1,2,4]triazin-7-yl)-4-methylphenyl)sulfonyl)-3-methylpyrrolidine-3-carbonitrile]",< 100,500 to 2000
"Cc1ccc(S(=O)(=O)N2CCC3(CCCO3)C2)cc1-c1cnc2c(N)ncnn12 (stereo not drawn) [Example 202, 7-(5-((1-Oxa-7-azaspiro[4.4]nonan-7-yl)sulfonyl)-2-methylphenyl)imidazo[2,1-f][1,2,4]triazin-4-amine]",100 to 500,500 to 2000
"Cc1ccc(S(=O)(=O)N2CCCC2c2c(C)noc2C)cc1-c1cnc2c(N)nc(C(F)(F)F)cn12 (stereo not drawn) [Example 300, 3-(5-((2-(3,5-dimethylisoxazol-4-yl)pyrrolidin-1-yl)sulfonyl)-2-methylphenyl)-6-(trifluoromethyl)imidazo[1,2-a]pyrazin-8-amine]",< 100,500 to 2000
"Cc1ccc(S(=O)(=O)N2CC3CC3(C#N)C2)cc1-c1cnc2c(N)nc(C(F)(F)F)cn12 (stereo not drawn) [Example 302, 3-((3-(8-amino-6-(trifluoromethyl)imidazo[1,2-a]pyrazin-3-yl)-4-methylphenyl)sulfonyl)-3-azabicyclo[3.1.0]hexane-1-carbonitrile]",< 100,500 to 2000
"Cc1ccc(S(=O)(=O)N2CC3NCC2C3O)cc1-c1cnc2c(N)nc(C(F)(F)F)cn12 (stereo not drawn) [Example 303, 2-((3-(8-amino-6-(trifluoromethyl)imidazo[1,2-a]pyrazin-3-yl)-4-methylphenyl)sulfonyl)-2,5-diazabicyclo[2.2.1]heptan-7-ol 2HCl]",< 100,500 to 2000
"COC1CCCN(S(=O)(=O)c2ccc(C)c(-c3cnc4c(N)nc(C(F)(F)F)cn34)c2)C1 (stereo not drawn) [Example 313, 3-(5-((3-Methoxypiperidin-1-yl)sulfonyl)-2-methylphenyl)-6-(trifluoromethyl)imidazo[1,2-a]pyrazin-8-amine]",< 100,100 to 500
"CCN1CC2C(O)C1CN2S(=O)(=O)c1ccc(C)c(-c2cnc3c(N)nc(C(F)(F)F)nn23)c1 (stereo not drawn) [Example 349, 2-((3-(4-amino-2-(trifluoromethyl)imidazo[2,1-f][1,2,4]triazin-7-yl)-4-methylphenyl)sulfonyl)-5-ethyl-2,5-diazabicyclo[2.2.1]heptan-7-ol]",< 100,500 to 2000
"Cc1ccc(S(=O)(=O)N2CC3C(O)C2CN3C(C)C)cc1-c1cnc2c(N)nc(C(F)(F)F)nn12 (stereo not drawn) [Example 350, 2-((3-(4-amino-2-(trifluoromethyl)imidazo[2,1-f][1,2,4]triazin-7-yl)-4-methylphenyl)sulfonyl)-5-isopropyl-2,5-diazabicyclo[2.2.1]heptan-7-ol]",100 to 500,500 to 2000
"Cc1ccc(S(=O)(=O)N2CC3C(O)C2CN3C)cc1-c1cnc2c(N)nc(C(F)(F)F)nn12 (stereo not drawn) [Example 352, 2-((3-(4-amino-2-(trifluoromethyl)imidazo[2,1-f][1,2,4]triazin-7-yl)-4-methylphenyl)sulfonyl)-5-methyl-2,5-diazabicyclo[2.2.1]heptan-7-ol]",< 100,500 to 2000

# The next lines start with the values.
IC50 [1] [nM],IC50 [2] [nM],SMILES
< 100,500 to 2000,"Cc1ccc(S(=O)(=O)N2CCC(c3ccncc3)C2)cc1-c1cnc2c(N)ncnn12 (stereo not drawn) [Example 201, 7-(2-Methyl-5-((3-(pyridin-4-yl)pyrrolidin-1-yl)sulfonyl)phenyl)imidazo[2,1-f][1,2,4]triazin-4-amine]"
100 to 500,500 to 2000,"Cc1ccc(S(=O)(=O)N2CCC(N(C)C)C2)cc1-c1cnc2c(N)ncnn12 (stereo not drawn) [Example 204, 7-(5-((3-(Dimethylamino)pyrrolidin-1-yl)sulfonyl)-2-methylphenyl)imidazo[2,1-f][1,2,4]triazin-4-amine]"
< 100,100 to 500,"Cc1ccc(S(=O)(=O)N2CCC3(CCC(F)(F)CC3)C2)cc1-c1cnc2c(N)ncnn12 [Example 207, 7-(5-((8,8-Difluoro-2-azaspiro[4.5]decan-2-yl)sulfonyl)-2-methylphenyl)imidazo[2,1-f][1,2,4]triazin-4-amine]"
< 100,500 to 2000,"Cc1ccc(S(=O)(=O)N2CCCC23CCOCC3)cc1-c1cnc2c(N)ncnn12 [Example 209, 7-(5-((8-Oxa-1-azaspiro[4.5]decan-1-yl)sulfonyl)-2-methylphenyl)imidazo[2,1-f][1,2,4]triazin-4-amine]"
< 100,500 to 2000,"Cc1ccc(S(=O)(=O)N2CCC[C@H]2C(C)(C)O)cc1-c1cnc2c(N)ncnn12 [Example 213, (S)-2-(1-((3-(4-Aminoimidazo[2,1-f][1,2,4]triazin-7-yl)-4-methylphenyl)sulfonyl)pyrroldiin-2-yl)propan-2-ol]"
< 100,500 to 2000,"N#Cc1ccc(S(=O)(=O)NC23CCC(C#N)(C2)C3)cc1-c1cnc2c(N)ncnn12 [Example 260, 3-(4-Aminoimidazo[2,1-f][1,2,4]triazin-7-yl)-4-cyano-N-(4-cyanobicyclo[2.1.1]hexan-1-yl)benzenesulfonamide trifluoroacetate salt]"
< 100,500 to 2000,"Cc1ccc(S(=O)(=O)N2CC3(CC(O)C3)C2)cc1-c1cnc2c(N)nc(C(F)(F)F)cn12 [Example 297, 2-((3-(8-amino-6-(trifluoromethyl)imidazo[1,2-a]pyrazin-3-yl)-4-methylphenyl)sulfonyl)-2-azaspiro[3.3]heptan-6-ol]"
< 100,500 to 2000,"Cc1ccc(S(=O)(=O)N2CCN(C)C(=O)C2)cc1-c1cnc2c(N)nc(C(F)(F)F)cn12 [Example 298, 4-((3-(8-amino-6-(trifluoromethyl)imidazo[1,2-a]pyrazin-3-yl)-4-methylphenyl)sulfonyl)-1-methylpiperazin-2-one]"
< 100,500 to 2000,"Cc1ccc(S(=O)(=O)N2CCOC3CNCC32)cc1-c1cnc2c(N)nc(C(F)(F)F)cn12 (stereo not drawn) [Example 304, 3-(5-((hexahydropyrrolo[3,4-b][1,4]oxazin-4(4aH)-yl)sulfonyl)-2-methylphenyl)-6-(trifluoromethyl)imidazo[1,2-a]pyrazin-8-amine]"
< 100,500 to 2000,"Cc1ccc(S(=O)(=O)N2CC3C(O)C2CN3C2CCC(C#N)C2)cc1-c1cnc2c(N)nc(C(F)(F)F)nn12 (stereo not drawn) [Example 351, 3-(5-((3-(4-amino-2-(trifluoromethyl)imidazo[2,1-f][1,2,4]triazin-7-yl)-4-methylphenyl)sulfonyl)-7-hydroxy-2,5-diazabicyclo[2.2.1]heptan-2-yl)cyclopentane-1-carbonitrile]"
100 to 500,100 to 500,"Cc1cc(C)c(S(=O)(=O)NCC(C)(C)O)cc1-c1cnc2c(N)nccn12 [Example 361, 5-(8-aminoimidazo[1,2-a]pyrazin-3-yl)-N-(2-hydroxy-2-methylpropyl)-2,4-dimethylbenzenesulfonamide]"
